# Source: ChEMBL document CHEMBL1126460, “The use of synthetic phosphopeptides for epitope mapping of the s1-casein phosphopeptide segment 5979” (Bioorg Med Chem Lett, 1992)
# Assay: Peptide was evaluated for inhibition in competitive ELISA at a concentration of 1 mM using casein phosphopeptide alpha s1-casein (59-79) as the adsorbed antigen
row,Molecule,inhibition [%]
1,CC[C@H](C)[C@H](NC(=O)[C@H](CCC(=O)O)NC(=O)[C@@H](N)CCC(=O)O)C(=O)N[C@H](C(=O)N1CCC[C@@H]1C(=O)N[C@@H](CC(N)=O)C(=O)O)C(C)C,10.8
2,CC[C@H](C)[C@H](NC(=O)[C@H](COP(=O)(Oc1ccccc1)Oc1ccccc1)NC(=O)[C@H](CCC(=O)O)NC(C)=O)C(=O)N[C@@H](COP(=O)(Oc1ccccc1)Oc1ccccc1)C(=O)N[C@@H](COP(=O)(Oc1ccccc1)Oc1ccccc1)C(=O)N[C@@H](COP(=O)(Oc1ccccc1)Oc1ccccc1)C(=O)N[C@@H](CCC(=O)O)C(=O)NC(CCC(=O)O)C(=O)NC (stereo partly specified),20
3,CC[C@H](C)[C@H](NC(=O)[C@H](COP(=O)(Oc1ccccc1)Oc1ccccc1)NC(=O)[C@H](CCC(=O)O)NC(=O)[C@H](C)NC(=O)[C@@H](N)CCC(=O)O)C(=O)NC,10.9
4,CC[C@H](C)[C@H](N)C(=O)N[C@H](C(=O)N1CCC[C@@H]1C(=O)N[C@@H](CC(N)=O)C(=O)N[C@@H](CO)C(=O)N[C@H](C(=O)N[C@@H](CCC(=O)O)C(=O)N[C@@H](CCC(=O)O)C(=O)NC)C(C)C)C(C)C,12
5,CC[C@H](C)[C@H](N)C(=O)N[C@H](C(=O)N1CCC[C@@H]1C(=O)N[C@@H](CC(N)=O)C(=O)N[C@@H](COP(=O)(Oc1ccccc1)Oc1ccccc1)C(=O)N[C@H](C(=O)N[C@@H](CCC(=O)O)C(=O)N[C@@H](CCC(=O)O)C(=O)NC)C(C)C)C(C)C,60.3
6,H-QMEAE-OH,10
